{"source": "paper PMC7999182", "about": "“Interaction of Remdesivir with Clinically Relevant Hepatic Drug Uptake Transporters” (Pharmaceutics, 2021)", "key": {"[1]": {"details": "cited from earlier work"}, "OCT1": {"molecular_target": "T1, OCT1 (Homo sapiens, UniProt O15245)", "T1 construct": "expressed in transfected cells", "T1 sequence (O15245 1-554)": "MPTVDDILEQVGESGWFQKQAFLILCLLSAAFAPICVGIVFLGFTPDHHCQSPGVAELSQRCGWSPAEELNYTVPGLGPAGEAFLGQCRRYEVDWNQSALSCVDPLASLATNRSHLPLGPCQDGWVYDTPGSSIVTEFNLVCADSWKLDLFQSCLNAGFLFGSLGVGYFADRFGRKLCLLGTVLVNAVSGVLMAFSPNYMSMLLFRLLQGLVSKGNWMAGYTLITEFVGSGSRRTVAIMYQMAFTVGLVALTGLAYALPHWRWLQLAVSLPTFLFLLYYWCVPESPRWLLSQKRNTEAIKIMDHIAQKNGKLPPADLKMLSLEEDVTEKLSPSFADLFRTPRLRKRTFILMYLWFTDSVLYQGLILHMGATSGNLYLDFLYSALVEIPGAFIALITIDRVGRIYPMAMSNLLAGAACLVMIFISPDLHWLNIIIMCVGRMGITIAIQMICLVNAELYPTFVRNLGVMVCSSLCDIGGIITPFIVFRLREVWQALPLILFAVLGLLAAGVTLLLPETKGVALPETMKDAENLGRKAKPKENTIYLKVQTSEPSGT", "experiment": "Remdesivir uptake into HEK cells stably expressing OCT1 vs vector control", "type": "in vitro ADME", "details": "5 µM remdesivir, 10 min, transporter-expressing vs control HEK cells", "excerpt": "Generation, cultivation and characterization of human embryonic kidney (HEK) cells stably expressing OATP1B1 refseq (=OATP1B1*1a), OATP1B1*1b, OATP1B1*5 and OATP1B1*15 [18], OATP1B3 [19], OATP2B1 [13] and OCT1 [20] have been described previously. OATP1B1 cells were cultivated in minimal essential medium (Life Technologies, Paisley, UK) and OATP1B3, OATP2B1 and OCT1 cells were cultivated in Dulbecco’s modified Eagle medium (Sigma, Darmstadt, Germany). Cultivation media were supplemented with 10% fetal calf serum, 100 U/mL penicillin and 100 µg/mL streptomycin. Cells were grown at 37 °C and 5% CO2. Functionality of the cells was confirmed by measuring uptake of prototypic substrates (see Section 2.3 and supplementary material).\nUptake assays were conducted at 37 °C according to previously described methods. For this, cells were seeded in 24-well plates (320,000 cells/well) and cultured for 2 days. Cells were then incubated for a further 24 h in culture medium with 5 mM butyrate (OATP1B3, OATP2B1, OCT1) or 10 mM butyrate (OATP1B1) to increase protein levels of recombinant transporters. […]\nRemdesivir was determined by UHPLC-MS-MS analysis on an Agilent 1290 infinity UHPLC system coupled to an Agilent 6495B triple quadrupole mass spectrometer (Agilent, Waldbronn, Germany) similar to a recently published method. […]"}, "OATP1B1": {"system": "OATP1B1", "parameters": "method as in earlier work", "details": "prototypic substrate not stated; cited from earlier work"}}, "data": [{"compound": "CCC(CC)COC(=O)[C@H](C)N[P@](=O)(OC[C@H]1O[C@@](C#N)(c2ccc3c(N)ncnn23)[C@H](O)[C@@H]1O)Oc1ccccc1", "note": "[Remdesivir]", "values": [{"measurement": "peak plasma concentration", "setting": "[1]; 30 min after iv administration of 200 mg remdesivir for 30 min", "result": "~10", "unit": "µM"}, {"measurement": "t1/2", "setting": "[1]", "result": 1, "unit": "h"}, {"measurement": "Cmax", "setting": "[1]; intravenous 100 mg remdesivir, healthy adults", "result": 3.7, "unit": "µM"}, {"measurement": "Remdesivir uptake ratio", "setting": "OCT1", "result": 1.2}, {"measurement": "IC50", "setting": "OATP1B1", "result": 2.8, "unit": "µM"}]}]}
